The pIC50 is the negative decadic logarithm of the IC50, by convention in mol/L.

Molecules are shown by their SMILES. pIC50: −log10 of the molar value. Structures can show the parent of a compound that is named as a salt.

Chain of human PDE10A (Q9Y233 290-1055 limits assumed): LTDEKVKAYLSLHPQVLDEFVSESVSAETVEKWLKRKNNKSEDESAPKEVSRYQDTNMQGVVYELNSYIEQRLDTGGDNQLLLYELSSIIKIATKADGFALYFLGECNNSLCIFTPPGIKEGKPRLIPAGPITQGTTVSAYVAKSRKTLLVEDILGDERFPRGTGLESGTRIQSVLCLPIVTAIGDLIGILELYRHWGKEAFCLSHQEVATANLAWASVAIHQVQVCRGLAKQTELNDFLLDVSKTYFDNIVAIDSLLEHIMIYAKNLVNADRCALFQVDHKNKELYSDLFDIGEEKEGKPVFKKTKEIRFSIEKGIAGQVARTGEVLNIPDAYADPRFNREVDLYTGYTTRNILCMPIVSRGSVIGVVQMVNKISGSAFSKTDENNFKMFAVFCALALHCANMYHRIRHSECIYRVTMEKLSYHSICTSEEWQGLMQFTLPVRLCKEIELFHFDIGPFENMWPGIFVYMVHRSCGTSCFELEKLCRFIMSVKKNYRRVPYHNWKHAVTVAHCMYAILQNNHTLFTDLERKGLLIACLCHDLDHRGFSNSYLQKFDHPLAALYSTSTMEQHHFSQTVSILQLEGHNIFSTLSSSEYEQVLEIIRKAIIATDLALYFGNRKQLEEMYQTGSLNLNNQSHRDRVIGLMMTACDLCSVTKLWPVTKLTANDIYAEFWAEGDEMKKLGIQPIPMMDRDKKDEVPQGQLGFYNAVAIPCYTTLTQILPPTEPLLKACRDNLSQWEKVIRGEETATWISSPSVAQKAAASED

The test deals with human PDE10A (UniProt Q9Y233). The test can be described thus: Measurement of PDE activity (recombinant enzyme, HTRF cAMP kit). The class given is biochemical. The note with it: Table 1, substrate 20 nM for PDE10, 60 minutes at 29 C, read-out: IC50. An outline of the steps:
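HTRF detection of cAMP left after hydrolysis, expressed as percent of uninhibited control to derive IC50. Reaction: serially diluted inhibitor mixed with recombinant enzyme, started with 20 nM cAMP, 60 min at 29 °C in Tris-HCl pH 7.5 buffer containing MgCl2 and BSA.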
In general terms: Time-resolved FRET reads energy transfer from a long-lived donor to a nearby acceptor.
With `O=c1c2c(-c3cc[nH]n3)csc2cnn1CCc1ccc2ccccc2n1` [compound 315, 3-(1H-pyrazol-3-yl)-5-[2-(quinolin-2-yl)ethyl]thieno[2,3-d]pyridazin-4(5H)-one], the pIC50 is > 7.00.
In the case of `O=c1c2c(-c3ccc(F)cc3Cl)cccc2cnn1CCc1ccc2ccccc2n1` [Example 143, 8-(2-Chloro-4-fluorophenyl)-2-[2-(quinolin-2-yl)ethyl]phthalazin-1(2H)-one], the negative logarithm of the IC50 (pIC50) was 6.30 to 6.70.
Regarding `Cc1ccc(-c2cccc3cnn(CCc4ccc5ccccc5n4)c(=O)c23)c(F)c1` [Example 163, 8-(2-Fluoro-4-methylphenyl)-2-[2-(quinolin-2-yl)ethyl]phthalazin-1(2H)-one], the pIC50 was 6.30 to 6.70.
With `O=c1c2c(-c3cccc(O)c3)cccc2cnn1CCc1ccc2ccccc2n1` [Example 116, 8-(3-Hydroxyphenyl)-2-[2-(quinolin-2-yl)ethyl]phthalazin-1(2H)-one] the figure was > 7.00; with `CN(CC1(C)COC1)c1cccc2cnn(CCc3cn4ccccc4n3)c(=O)c12` [compound 394, 2-[2-(imidazo[1,2-a]pyridin-2-yl)ethyl]-8-{methyl[(3-methyloxetan-3-yl)methyl]amino}phthalazin-1(2H)-one], 6.30 to 6.70; with `CCc1ccc(CCn2ccc3scc(-c4ccncc4)c3c2=O)nc1` [Example 209, 5-[2-(5-Ethylpyridin-2-yl)ethyl]-3-(pyridin-4-yl)thieno[3,2-c]pyridin-4(5H)-one hydrochloride], 6.30 to 6.70.
With `O=c1c2c(NC3COC3)cccc2cnn1CCc1cn2ccccc2n1` [compound 395, 2-[2-(imidazo[1,2-a]pyridin-2-yl)ethyl]-8-(oxetan-3-ylamino)phthalazin-1(2H)-one] the figure was > 7.00; with `O=c1c2c(N3CCOCC3)ccnc2cnn1CCc1ccc2ccccc2n1` [compound 405, 4-(morpholin-4-yl)-6-[2-(quinolin-2-yl)ethyl]pyrido[2,3-d]pyridazin-5(6H)-one], > 7.00.
With `O=c1c2c(-c3cccnc3)csc2ccn1CCc1cn2ccccc2n1` [compound 310, 5-[2-(imidazo[1,2-a]pyridin-2-yl)ethyl]-3-(pyridin-3-yl)thieno[3,2-c]pyridin-4(5H)-one] the figure was > 7.00.
Turning to `COc1ccc(-c2csc3cnn(CCc4ccc5ccccc5n4)c(=O)c23)cn1` [Example 49, 3-(6-methoxypyridin-3-yl)-5-[2-(quinolin-2-yl)ethyl]thieno[2,3-d]pyridazin-4(5H)-one], the negative-log IC50 (pIC50) is 6.70 to 7.00.
As for `Cn1cc(-c2csc3cnn(CCc4ccc5ccccc5n4)c(=O)c23)cn1` [Example 56, 3-(1-methyl-1H-pyrazol-4-yl)-5-[2-(quinolin-2-yl)ethyl]thieno[2,3-d]pyridazin-4(5H)-one], the figure is > 7.00; as for `O=c1c2c(-c3ccncc3)cccc2cnn1/C=C/c1ccc2ccccc2n1` [Example 225], > 7.00.
`CC1(CNc2cccc3cnn(CCc4cn5ccccc5n4)c(=O)c23)COC1` [compound 403]: the pIC50 is > 7.00.
As for `O=c1c2c(-c3ccoc3)cccc2ccn1C1CC1c1ccc2ccccc2n1` (stereo not drawn) [Example 268, anti 8-(furan-3-yl)-2-(2-(quinolin-2-yl)cyclopropyl)isoquinolin-1(2H)-one], the figure is > 7.00.
In the case of `CN(c1cccc2cnn(CCc3cn4ccccc4n3)c(=O)c12)C1COC1` [compound 387, 2-[2-(imidazo[1,2-a]pyridin-2-yl)ethyl]-8-[methyl(oxetan-3-yl)amino]phthalazin-1(2H)-one], the negative-log IC50 (pIC50) was > 7.00.
As for `O=c1c2c(-c3cncnc3)csc2cnn1C1CC1c1ccc2ccccc2n1` (stereo not drawn) [compound 290], the figure is > 7.00.
With `O=c1c2c(-c3ccncc3)csc2cnn1CCc1ccc2cc(Cl)ccc2n1` [compound 318, hydrochloride] the figure was 6.30 to 6.70; with `O=c1c2c(-c3ccncc3)csc2cnn1C1CC1c1ccc2sccc2n1` (stereo not drawn) [compound 291], > 7.00.

These data come from US20130116241A1, “NOVEL INHIBITOR COMPOUNDS OF PHOSPHODIESTERASE TYPE 10A” (AbbVie Inc., priority 2011, published 2013).
